According to US20030199743A1, “Screening test and procedure using apocrine sweat” (priority 2000, published 2003):

Test: THC in blood, eccrine sweat, apocrine sweat and urine after smoking a THC containing product
Assay type: in vivo, human
Description: Samples of apocrine and eccrine sweat were collected prior to oral consumption of a THC containing product. No THC was detected in either sample. The test individual then orally consumed (smoked) a quantity of a THC containing product. Small quantities (0.5 cc) of apocrine and eccrine sweat was separately collected over a period of 30 minutes under ambient conditions to induce sweating. When the collected samples were tested using standard laboratory tests for THC metabolites […].

CCCCCc1cc(O)c2c(c1)OC(C)(C)[C@@H]1CCC(C)=C[C@@H]21 [Delta 9 THC, delta nine tetrahydrocannibinol]
Delta 9 THC concentration in apocrine sweat (apocrine sweat (0.5 cc) collected over 30 minutes after smoking a THC containing product): 107 nanograms/ml | Delta 9 THC concentration in blood (blood, test individual after smoking a THC containing product, standard laboratory test for THC): 21 nanograms/ml | Delta 9 THC concentration in eccrine sweat (eccrine sweat (0.5 cc) collected over 30 minutes after smoking a THC containing product): 4 nanograms/ml | Quantity of THC in apocrine sweat relative to blood (ratio apocrine sweat / blood): 5.1 times | Quantity of THC in apocrine sweat relative to eccrine sweat (ratio apocrine sweat / eccrine sweat): 26.75 times | Delta 9 THC concentration in urine (urine, after smoking a THC containing product): undetect-
